Laboratory results from patent publication US20110059967A1, “THERAPEUTIC COMPOUNDS” (Allergan Inc., priority 2008, published 2011).
“Also recorded” adds a separate entry of the source.

Test system: lashes and adjacent hairs
Assay: Observation of lashes and adjacent hairs in glaucoma patients treated with bimatoprost in only one eye
Assay type: in vivo
Conditions: glaucoma patients taking bimatoprost in only one eye
Text: In the course of treating patients having glaucoma, treatment may only be appropriate in one eye. […] The lash appearance on the lids of the treated eyes would have appeared quite attractive if it represented a bilateral phenomenon. As a result of its asymmetric nature, the long lash'es on one side could be construed as disturbing from a cosmetic standpoint. A systemic examination was preformed as a result of the asymmetric phenomenon. It soon became apparent that this altered appearance was not an isolated finding. […] Definite differences could be identified to varying degrees in the lashes and adjacent hairs of all patients who were taking the drug on a unilateral basis for longer than 6 months.
The changes in the lashes were apparent on gross inspection in several patients once attention was focused on the issue. In those with light colored hair and lashes, the differences were only seen easily with the aid of the high magnification and lighting capabilities of the slit lamp biomicroscope. In the course of glaucoma follow-up examination, attention is generally immediately focused on the eye itself. As a result of the high power magnification needed only one eye is seen at a time and the eye is seen at a high enough power that the lashes are not in focus. […]

## CCNC(=O)CCC/C=C\C[C@@H]1[C@@H](/C=C/[C@@H](O)CCc2ccccc2)[C@H](O)C[C@@H]1O [bimatoprost]
  hair growth: lashes of the treated eye compared with the non-treated eye: longer, thicker, and fuller; also recorded: hair growth is stimulated
